In the NIST ThermoML archive (doi:10.1021/je700662a):
“And” between values parts separate entries of the source, which are not always exact repeats. Identical values can stand only once.

Key:
[1] = DTA; for Triple point temperature: Crystal 2
[2] = molar heat capacity at constant pressure; conditions: 101.33 kPa, Large sample (1 g) DSC
[3] = Molar enthalpy of transition or fusion; conditions: DSC

CCCC(N)=O [butanamide]
Conditions | Molar enthalpy of transition or fusion, [3] [kcal/mol] | Normal melting temperature, [1] [°C]
Crystal | 4.59 | 114.2
Crystal 1 | 4.68 | 114.2

[2], Crystal
Conditions | molar heat capacity at constant pressure [J/K/mol]
183 K | 96.4
188 K | 98.3
193 K | 101.7
198 K | 104.1
203 K | 106.4
208 K | 108
213 K | 109.7
218 K | 112.5
223 K | 114.3
228 K | 116
233 K | 118.1
238 K | 120.8
243 K | 123
248 K | 125.9
253 K | 127.4
258 K | 130.2
263 K | 132.4
268 K | 135
273 K | 136.8
278 K | 139.3
283 K | 141.5
288 K | 143.7
293 K | 146.4
298 K | 147.7
303 K | 150.3
308 K | 153.5
313 K | 155
318 K | 158.8
323 K | 161.4

CCCCCCCCCCCC(N)=O [dodecanamide]
Conditions | Molar enthalpy of transition or fusion, [3] | Normal melting temperature, [1]
Crystal 1 | 8.68 kcal/mol and 8.53 kcal/mol | 100.2 °C and 100.7 °C
Crystal 2 | 2.32 kcal/mol and 2.15 kcal/mol | –

Conditions | Triple point temperature
[1] | 321.1 K and 322 K

[2], Crystal 2
Conditions | molar heat capacity at constant pressure [J/K/mol]
198 K | 213.3
203 K | 217.8
208 K | 223.3
213 K | 227.1
218 K | 231.8
223 K | 237.5
228 K | 242.2
233 K | 245.9
238 K | 251.2
243 K | 258.4
248 K | 263
253 K | 269.2
258 K | 274.3
263 K | 280.8

CC(C)(C)C(N)=O [2,2-dimethylpropanamide]
Crystal
Conditions | Molar enthalpy of transition or fusion | Normal melting temperature
[1] | – | 152.2 °C and 152.5 °C
[3] | 5.76 kcal/mol and 6.12 kcal/mol | –

[2], Crystal
Conditions | molar heat capacity at constant pressure [J/K/mol]
188 K | 115.7
193 K | 117.6
198 K | 120.8
203 K | 123
208 K | 124.8
213 K | 126.4
218 K | 129.1
223 K | 131.5
228 K | 133.4
233 K | 136.6
238 K | 137.9
243 K | 140.2
248 K | 142.8
253 K | 144.5
258 K | 147.5
263 K | 149.2
268 K | 150.9
273 K | 153.8
278 K | 156.3
283 K | 158.3
288 K | 161.1
293 K | 163
298 K | 163.7
303 K | 165.4
308 K | 167.9
313 K | 170.2
318 K | 172.7
323 K | 174.2

CCCCCCCCCCCCCCCCCC(N)=O [octadecanamide]
Conditions | Molar enthalpy of transition or fusion, [3] | Normal melting temperature, [1]
Crystal 1 | 13.1 kcal/mol and 13.2 kcal/mol | 106.6 °C and 107 °C
Crystal 2 | 0.526 kcal/mol | –

Conditions | Triple point temperature [K]
[1] | 298.7

[2], Crystal 2
Conditions | molar heat capacity at constant pressure [J/K/mol]
208 K | 318.2
213 K | 328.5
218 K | 336.6
223 K | 345.2
228 K | 353.1
233 K | 360.8
238 K | 367.6
243 K | 375.8
248 K | 385.6
253 K | 393.6
258 K | 403.2

CCC(N)=O [propanamide]
Crystal
Conditions | Molar enthalpy of transition or fusion [kcal/mol] | Normal melting temperature [°C]
[1] | – | 79.5
[3] | 3.08 | –

CCCCCCCCCCCCCCCC(N)=O [hexadecanamide]
Conditions | Molar enthalpy of transition or fusion, [3] | Normal melting temperature, [1]
Crystal 1 | 10.9 kcal/mol and 10.8 kcal/mol | 103 °C and 102.5 °C
Crystal 2 | 2.49 kcal/mol and 2.46 kcal/mol | –

Conditions | Triple point temperature
[1] | 355.5 K and 356.1 K

[2], Crystal 2
Conditions | molar heat capacity at constant pressure [J/K/mol]
208 K | 267.5
213 K | 273.7
218 K | 276.5
223 K | 282.8
228 K | 289
233 K | 297.1
238 K | 302.6
243 K | 310.3
248 K | 319.5
253 K | 323.8
258 K | 331.6
263 K | 340.1
268 K | 348.1
273 K | 357.9
278 K | 364.8
283 K | 371.6
288 K | 378.1
293 K | 387.6
298 K | 394.3
303 K | 401.8

CC(C)C(N)=O [2-methylpropanamide]
Crystal
Conditions | Molar enthalpy of transition or fusion | Normal melting temperature
[1] | – | 127.0 °C and 127.2 °C
[3] | 4.59 kcal/mol and 4.61 kcal/mol | –

[2], Crystal
Conditions | molar heat capacity at constant pressure [J/K/mol]
183 K | 100.8
188 K | 102.9
193 K | 105
198 K | 107.1
203 K | 110.5
208 K | 112.4
213 K | 114
218 K | 115.6
223 K | 118.7
228 K | 120.3
233 K | 122.8
238 K | 124.8
243 K | 127.3
248 K | 130.8
253 K | 132.6
258 K | 134.6
263 K | 137.6
268 K | 138.8
273 K | 141.9
278 K | 144.6
283 K | 146.5
288 K | 148.5
293 K | 150.9
298 K | 152.4
303 K | 154.1
308 K | 158
313 K | 160.2
318 K | 162.7
323 K | 164.5
